# Biological target: T1, human orexin type 2 receptor (Homo sapiens, UniProt O43614)
# T1 construct: expressed in transfected cells
# T1 sequence (O43614 1-444): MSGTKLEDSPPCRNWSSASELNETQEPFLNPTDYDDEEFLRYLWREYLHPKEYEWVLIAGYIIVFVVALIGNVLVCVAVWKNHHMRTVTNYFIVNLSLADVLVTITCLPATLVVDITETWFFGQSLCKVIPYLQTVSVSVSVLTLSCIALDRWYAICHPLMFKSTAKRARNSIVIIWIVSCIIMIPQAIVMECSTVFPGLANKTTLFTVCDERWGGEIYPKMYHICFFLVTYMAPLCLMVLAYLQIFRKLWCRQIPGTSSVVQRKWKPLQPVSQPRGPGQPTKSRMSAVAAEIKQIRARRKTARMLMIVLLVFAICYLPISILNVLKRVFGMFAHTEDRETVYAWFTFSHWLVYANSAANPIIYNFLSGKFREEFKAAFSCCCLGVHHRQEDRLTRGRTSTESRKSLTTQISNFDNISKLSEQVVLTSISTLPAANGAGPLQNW
# Assay: Measurement of orexin type 2 receptor agonist activity (calcium fluorescence, Fluo-4 AM, FDSS)
# Type: cell-based
# Conditions: test compound 3 μM; CHO cells expressing human OX2 receptor; DMSO = 0%, orexin A (human) = 100%
# Procedure, shortened: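 CHO-K1 cells stably expressing human OX2R were loaded with Fluo-4 AM (30 min 37 °C, 30 min RT) in HEPES-buffered HBSS with 0.1% BSA and probenecid. Calcium fluorescence was followed on FDSS for 2 min after compound addition; activity normalised to DMSO (0%) and 10 nM orexin A (100%).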
row,SMILES,"OX2R agonist activity (3 μM, %) [%]"
1,"CS(=O)(=O)NC1CCN(C(=O)C2CC2c2cscc2-c2c(F)cccc2F)C1 (racemic) [Example 321, a mixture of rac-N-[(3R)-1-{(1R,2R)-2-[4-(2,6-difluorophenyl)thiophen-3-yl]cyclopropane-1-carbonyl}pyrrolidin-3-yl]methanesulfonamide and rac-N-[(3R)-1-{(1R,2R)-2-[4-(2,6-difluorophenyl)thiophen-3-yl]cyclopropane-1-carbonyl}pyrrolidin-3-yl]methanesulfonamide]",95
2,"Cc1scc(-c2c(F)cccc2F)c1C1CC1C(=O)N1CCC(NS(C)(=O)=O)C1 (racemic) [Example 329, a mixture of rac-N-[(3R)-1-{(1R,2R)-2-[4-(2,6-difluorophenyl)-2-methylthiophen-3-yl]cyclopropane-1-carbonyl}pyrrolidin-3-yl]methanesulfonamide and rac-N-[(3S)-1-{(1R,2R)-2-[4-(2,6-difluorophenyl)-2-methylthiophen-3-yl]cyclopropane-1-carbonyl}pyrrolidin-3-yl]methanesulfonamide]",91
3,"CS(=O)(=O)N[C@H]1CCN(C(=O)C2CC2c2c(F)cccc2-c2c(F)cccc2F)C1 (single isomer, unassigned) [Example 195, N-{(3S)-1-[(1R,2R)-2-(2′,3,6′-trifluoro[1,1′-biphenyl]-2-yl)cyclopropane-1-carbonyl]pyrrolidin-3-yl}methanesulfonamide, or N-{(3S)-1-[(1S,2S)-2-(2′,3,6′-trifluoro[1,1′-biphenyl]-2-yl)cyclopropane-1-carbonyl]pyrrolidin-3-yl}methanesulfonamide]",99
4,"CS(=O)(=O)N[C@H]1CCN(C(=O)C2CC2c2ccc(F)cc2-c2c(F)cccc2F)C1 (single isomer, unassigned) [Example 200, N-{(3S)-1-[(1R,2R)-2-(2′,5,6′-trifluoro[1,1′-biphenyl]-2-yl)cyclopropane-1-carbonyl]pyrrolidin-3-yl}methanesulfonamide, or N-{(3S)-1-[(1S,2S)-2-(2′,5,6′-trifluoro[1,1′-biphenyl]-2-yl)cyclopropane-1-carbonyl]pyrrolidin-3-yl}methanesulfonamide]",103
5,"CS(=O)(=O)N[C@H]1CCN(C(=O)C2CC2(F)c2ccccc2-c2c(F)cccc2F)C1 (single isomer, unassigned) [Example 304, N-{(3S)-1-[(1S,2S)-2-(2′,6′-difluoro [1,1′-biphenyl]-2-yl)-2-fluorocyclopropane-1-carbonyl]pyrrolidin-3-yl}methanesulfonamide, or N-{(3S)-1-[(1R,2R)-2-(2′,6′-difluoro[1,1′-biphenyl]-2-yl)-2-fluorocyclopropane-1-carbonyl]pyrrolidin-3-yl}methanesulfonamide]",93
6,"CS(=O)(=O)N[C@H]1CCCN(C(=O)C2CC2(F)c2ccccc2-c2c(F)cccc2F)C1 (single isomer, unassigned) [Example 306, N-{(3S)-1-[(1S,2S)-2-(2′,6′-difluoro [1,1′-biphenyl]-2-yl)-2-fluorocyclopropane-1-carbonyl]piperidin-3-yl}methanesulfonamide, or N-{(3S)-1-[(1R,2R)-2-(2′,6′-difluoro[1,1′-biphenyl]-2-yl)-2-fluorocyclopropane-1-carbonyl]piperidin-3-yl}methanesulfonamide]",93
7,"CCS(=O)(=O)NC[C@@H]1CCN1C(=O)[C@@H]1C[C@@]1(F)c1ccccc1-c1c(F)cccc1F (single isomer, unassigned) [Example 351, N-({(2R)-1-[(1S,2S)-2-(2′,6′-difluoro[1,1′-biphenyl]-2-yl)-2-fluorocyclopropane-1-carbonyl]azetidin-2-yl}methyl)ethanesulfonamide, or N-({(2S)-1-[(1S,2S)-2-(2′,6′-difluoro[1,1′-biphenyl]-2-yl)-2-fluorocyclopropane-1-carbonyl]azetidin-2-yl}methyl)ethanesulfonamide]",101
8,"CN(C)S(=O)(=O)NCC1CN(C(=O)[C@@H]2C[C@H]2c2ccccc2-c2c(F)cccc2F)CCO1 (stereo in doubt) [Example 284, N′-({(2R)-4-[(1R,2R)-2-(2′,6′-difluoro[1,1′-biphenyl]-2-yl)cyclopropane-1-carbonyl]morpholin-2-yl}methyl)-N,N-dimethylsulfuric diamide]",94
9,"COC[C@@H]1CN(C(=O)[C@@H]2C[C@@]2(F)c2ccccc2-c2c(F)cccc2F)C1CNS(C)(=O)=O (stereo in doubt) [Example 399, N-{[(2R,3R)-1-[(1S,2S)-2-(2′,6′-difluoro[1,1′-biphenyl]-2-yl)-2-fluorocyclopropane-1-carbonyl]-3-(methoxymethyl)azetidin-2-yl]methyl}methanesulfonamide]",95
10,"CS(=O)(=O)N[C@H]1CCN(C(=O)[C@@H]2C[C@H]2c2ccccc2-c2c(F)cccc2F)C1 [Example 23, N-{(3S)-1-[(1R,2R)-2-(2′,6′-difluoro[1,1′-biphenyl]-2-yl)cyclopropane-1-carbonyl]pyrrolidin-3-yl}methanesulfonamide]",105
11,"CS(=O)(=O)N[C@H]1CCCN(C(=O)[C@@H]2C[C@H]2c2ccccc2-c2c(F)cccc2F)C1 [Example 24, N-{(3S)-1-[(1R,2R)-2-(2′,6′-difluoro [1,1′-biphenyl]-2-yl)cyclopropane-1-carbonyl]piperidin-3-yl}methanesulfonamide]",95
12,"CS(=O)(=O)N[C@H]1CCCN(C(=O)[C@@H]2C[C@H]2c2ccccc2-c2c(F)cccc2F)CC1 [Example 25, N-{(4S)-1-[(1R,2R)-2-(2′,6′-difluoro[1,1′-biphenyl]-2-yl)cyclopropane-1-carbonyl]azepan-4-yl}methanesulfonamide]",93
13,"CS(=O)(=O)NC1CN(C(=O)C2CC2c2ccccc2-c2c(F)cccc2F)CC1(F)F (stereo not drawn) [Example 180, N-{1-[2-(2′,6′-difluoro[1,1′-biphenyl]-2-yl)cyclopropane-1-carbonyl]-4,4-difluoropyrrolidin-3-yl}methanesulfonamide optical isomer]",95
14,"CS(=O)(=O)N[C@H]1CCCN(C(=O)C2CC2c2c(F)cccc2-c2c(F)cccc2F)C1 (stereo partly drawn) [Example 196, N-{(3S)-1-[(1R,2R)-2-(2′,3,6′-trifluoro[1,1′-biphenyl]-2-yl)cyclopropane-1-carbonyl]piperidin-3-yl}methanesulfonamide, or N-{(3S)-1-[(1S,2S)-2-(2′,3,6′-trifluoro[1,1′-biphenyl]-2-yl)cyclopropane-1-carbonyl]piperidin-3-yl}methanesulfonamide]",101
15,"CS(=O)(=O)N[C@H]1CCCN(C(=O)C2CC2c2ccc(F)cc2-c2c(F)cccc2F)C1 (stereo partly drawn) [Example 201, N-{(3S)-1-[(1R,2R)-2-(2′,5,6′-trifluoro[1,1′-biphenyl]-2-yl)cyclopropane-1-carbonyl]piperidin-3-yl}methanesulfonamide, or N-{(3S)-1-[(1S,2S)-2-(2′,5,6′-trifluoro[1,1′-biphenyl]-2-yl)cyclopropane-1-carbonyl]piperidin-3-yl}methanesulfonamide]",101

# Reference: patent publication US20250250230A1, “HETEROCYCLIC COMPOUND” (TAKEDA PHARMACEUTICAL COMPANY LIMITED, priority 2022, published 2025)
